From patent publication US9989531B2, “Composition comprising a cell sample from a subject with scoliosis and a reagent for detecting PTPμ or PIPK1y” (Chu Sainte-Justine, priority 2013, dated 2018)

Experiments:
Apelin receptor (APJR) = target: T1, Apelin receptor (APJR) (Mus musculus, UniProt Q9WV08); test: GiPCR signaling by cellular dielectric spectroscopy (CDS), apelin-17 stimulation of osteoblasts; type: cell-based; conditions: osteoblasts from bipedal WT and PTPμ−/− mice, different concentrations (FIG. 3)
T1 construct: The signaling capacity of G proteins was assessed from osteoblast cultures using cellular dielectric spectroscopy (CDS); endogenous in cells; host or cells: primary spine osteoblasts from bipedal C57Bl/6j WT and PTPμ-/- mice
T1 sequence (Q9WV08 1-377): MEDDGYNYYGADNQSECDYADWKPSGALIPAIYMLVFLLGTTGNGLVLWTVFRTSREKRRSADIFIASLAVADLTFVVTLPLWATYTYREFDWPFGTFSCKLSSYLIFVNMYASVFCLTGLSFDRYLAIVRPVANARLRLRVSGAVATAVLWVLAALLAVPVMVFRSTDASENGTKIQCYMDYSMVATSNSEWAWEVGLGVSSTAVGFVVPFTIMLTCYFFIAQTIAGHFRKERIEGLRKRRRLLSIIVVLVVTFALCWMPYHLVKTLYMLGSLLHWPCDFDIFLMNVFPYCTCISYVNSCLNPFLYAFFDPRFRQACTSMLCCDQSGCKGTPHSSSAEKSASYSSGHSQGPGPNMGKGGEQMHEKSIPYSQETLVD

PIPK1γ = target: T2, PIPK1γ (Mus musculus, UniProt O70161); test: PIPK1γ knockdown by siRNA in osteoblasts, response to somatostatin stimulation (CDS); type: cell-based; conditions: varying concentrations of somatostatin, vs scrb (FIG. 6H)
T2 construct: endogenous in cells; host or cells: primary spine osteoblasts from bipedal C57Bl/6j WT and PTPμ-/- mice
T2 sequence (O70161 whole entry): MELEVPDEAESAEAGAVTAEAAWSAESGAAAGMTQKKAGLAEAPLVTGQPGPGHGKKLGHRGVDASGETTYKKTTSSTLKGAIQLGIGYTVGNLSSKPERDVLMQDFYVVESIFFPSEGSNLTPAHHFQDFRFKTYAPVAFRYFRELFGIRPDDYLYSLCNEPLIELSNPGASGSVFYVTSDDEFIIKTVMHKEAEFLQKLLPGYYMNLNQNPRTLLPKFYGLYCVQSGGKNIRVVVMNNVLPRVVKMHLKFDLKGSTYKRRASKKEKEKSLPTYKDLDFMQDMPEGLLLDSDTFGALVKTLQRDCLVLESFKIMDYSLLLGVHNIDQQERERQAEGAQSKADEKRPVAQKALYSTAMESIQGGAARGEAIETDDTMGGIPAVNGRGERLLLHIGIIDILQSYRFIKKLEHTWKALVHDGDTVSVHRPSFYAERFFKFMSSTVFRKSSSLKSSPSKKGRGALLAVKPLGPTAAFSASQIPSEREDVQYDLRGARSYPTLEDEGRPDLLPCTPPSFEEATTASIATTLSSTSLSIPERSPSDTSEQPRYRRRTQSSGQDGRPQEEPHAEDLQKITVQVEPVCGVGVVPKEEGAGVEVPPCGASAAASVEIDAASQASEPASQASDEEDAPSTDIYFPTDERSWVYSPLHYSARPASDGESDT
Protocol: (§1) The signaling capacity of G proteins was assessed from osteoblast cultures using cellular dielectric spectroscopy (CDS) performed on a CellKey™ apparatus (MDS Sciex, San Francisco, Calif.), as described in Akoume, et al., 2010 and WO 2010/040234, 2010 to Moreau et al. To assess GiPCR cell signaling, specific agonists that bind to GiPCR and regulate Gi proteins were used: Apelin-17, Oxymethazolin and Somatostatin (Som) (Tocris Bioscience, Canada).
(§2) Primary osteoblast cell cultures from C57BI/6j WT and C57B/6j PTPμ^−/− were cultured (as described above). Lipofectamine™ RNAiMAX (Invitrogen) was applied for siRNA transfection according to the manufacturer's instructions. The sequence of RNA oligo used for the knockdown of OPN is ([…] (SEQ ID NO: 25)). The cells were harvested for RNA extraction after 48 hrs. The same procedure was followed for phosphatidylinositol-phosphate kinase type I gamma (PIPK1γ). The sequence of RNA oligo used for the knockdown of PIPK1γ is ([…] (SEQ ID NO: 26)).
To further assess the implication of PIPK1γ in the mechanism of action behind PTPμ deficiency, a SiRNA approach was used to knockdown the expression of PIPK1γ in WT and PTPμ^−/− osteoblasts prior to initiating GiPCR signaling with somatostatin stimulation. Efficiency of siRNA in WT and PTPμ^−/− osteoblasts was confirmed by qPCR and Western blot analysis (FIGS. 6 B and C). […]

G αi proteins = test: Pertussis toxin pre-treatment of osteoblasts before GiPCR agonist stimulation (CDS); type: cell-based, mouse; conditions: osteoblasts from bipedal WT and PTPμ−/− mice; agonists oxymethazolin, somatostatin, apelin-17 (FIG. 2)
Text: Furthermore, Pertussis toxin (PTX) (Sigma Aldrich, Canada) was used to determine if the effect of the agonists was related to G αi proteins.

[1] = test system: α2 adrenergic receptor (α2-ADR); test: GiPCR signaling by cellular dielectric spectroscopy (CDS), oxymethazolin stimulation of osteoblasts; type: cell-based, mouse; conditions: osteoblasts from bipedal WT and PTPμ−/− mice, different concentrations (FIG. 3)
Protocol: as §1
To examine the impact of PTPμ deficiency on this defect, osteoblasts from bipedal WT and PTPμ^−/− mice were screened for their response to three GiPCR selective agonists identified in (FIG. 2). In agreement with previous results (Akoume et al Spine 2010), all three compounds evoked typical CDS response profiles of GiPCR in WT osteoblasts. Consistent with Gi coupling for their cognate receptors in these cells, response to each of the three tested compounds was blocked by pre-treatment with PTX (FIGS. 2 A-F). Similar results were obtained with PTPμ^−/− osteoblasts (FIGS. 2 G-L). […] However, in each case, osteoblasts from PTPμ^−/− mice were less responsive than those from WT mice, but EC50 values were similar in both groups (FIGS. 3 A-C).

OPN = target: T3, OPN (Mus musculus, UniProt P10923); test: OPN knockdown by siRNA in osteoblasts, response to GiPCR stimulation (CDS); type: cell-based; conditions: WT and PTPμ−/− osteoblasts (FIGS. 3 F-H)
T3 construct: endogenous in cells; host or cells: primary spine osteoblasts from bipedal C57Bl/6j WT and PTPμ-/- mice, transfected with OPN siRNA
T3 sequence (P10923 17-294): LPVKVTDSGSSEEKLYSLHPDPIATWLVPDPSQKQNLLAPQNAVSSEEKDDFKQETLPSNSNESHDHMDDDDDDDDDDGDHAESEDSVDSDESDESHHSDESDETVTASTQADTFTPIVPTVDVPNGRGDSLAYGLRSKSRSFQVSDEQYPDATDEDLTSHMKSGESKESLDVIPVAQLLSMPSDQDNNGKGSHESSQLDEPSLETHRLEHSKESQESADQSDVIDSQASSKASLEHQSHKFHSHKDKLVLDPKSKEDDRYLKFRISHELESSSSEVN
Protocol: as §1, §2
To relate these findings to the OPN action, the small interference RNA (siRNA) approach was used to knockdown the expression of OPN in WT and PTPμ^−/− osteoblasts.

GiPCR signaling = test: Exogenous recombinant OPN treatment of osteoblasts prior to GiPCR stimulation (CDS); type: cell-based, mouse; conditions: WT and PTPμ−/− osteoblasts, varying concentrations of rOPN (FIGS. 4 A-C)
Protocol: as §1
WT and PTPμ^−/− osteoblasts were treated with varying concentrations of exogenous recombinant OPN (rOPN) prior to GiPCR stimulation with agonists identified in FIGS. 4 A-C.

Apelin-17
CDS response to agonist (Apelin receptor (APJR)): increased response in a concentration-dependent manner

siPIPK1: RNA oligo used for the knockdown of PIPK1γ: CCUCCACAUCGGGAUUGAUAUU (SEQ ID NO: 26) (CCUCCACAUCGGGAUUGAUAUU; listed as RNA, chemistry not given here)
response to somatostatin stimulation after depletion of PIPK1γ (PIPK1γ; WT osteoblasts): same response | response to somatostatin stimulation after depletion of PIPK1γ (PIPK1γ; osteoblasts from PTPμ deficiency mice): enhanced response to somatostatin stimulation

Pertussis toxin [PTX]
effect of pre-treatment on Gi coupling of agonists to their cognate receptors (G αi proteins): blocked the Gi coupling

Cc1cc(C(C)(C)C)c(O)c(C)c1CC1=NCCN1 [oxymethazoin, Oxymethazolin]
CDS response to agonist [1]: increased response in a concentration-dependent manner

OPN siRNA: RNA oligo used for the knockdown of OPN: CCACAGCCACAAGCAGUCCAGAUUA (SEQ ID NO: 25) (CCACAGCCACAAGCAGUCCAGAUUA; listed as RNA, chemistry not given here)
response to GiPCR stimulation after deletion of OPN (OPN): enhanced response to GiPCR stimulation

rOPN: exogenous recombinant OPN (osteopontin)
integrated response to GiPCR stimulation (GiPCR signaling): decrease in the integrated response in a concentration-dependent manner
